Test system: recombinant NL-Rluc virus
Test: Inhibition of HIV replication (NL-RLuc virus, luciferase readout in MT-2 cells)
Type: cell-based
Details: Human immunodeficiency virus 1, MT2, 120 h

Question: For Cc1ccc(-c2c3c(nc(C)c2C(OC(C)(C)C)C(=O)O)CCN(c2ccccc2)C3)cc1 (centres unmarked) [Example 31, 2-(tert-Butoxy)-2-(2-methyl-6-phenyl-4-(p-tolyl)-5,6,7,8-tetrahydro-1,6-naphthyridin-3-yl)acetic acid], which EC50 is on record?
Answer: 466 nM

Question: How did the EC50 turn out when COc1ccc(CCCN2CCc3nc(C)c([C@H](OC(C)(C)C)C(=O)O)c(-c4ccc(C)cc4)c3C2)cc1 [Example 33, (S)-2-(tert-Butoxy)-2-(6-(3-(4-methoxyphenyl)propyl)-2-methyl-4-(p-tolyl)-5,6,7,8-tetrahydro-1,6-naphthyridin-3-yl)acetic acid] was run?
Answer: 17 nM

Question: For Cc1ccc(-c2c3c(nc(C)c2[C@H](OC(C)(C)C)C(=O)O)CCN(CCCc2ccc(Cl)cc2)C3)cc1 [Example 34, (S)-2-(tert-Butoxy)-2-(6-(3-(4-chlorophenyl)propyl)-2-methyl-4-(p-tolyl)-5,6,7,8-tetrahydro-1,6-naphthyridin-3-yl)acetic acid], which EC50 is on record?
Answer: 12 nM

Question: Cc1nc2c(c(-c3cc(F)c4c(c3C)CCCO4)c1[C@H](OC(C)(C)C)C(=O)O)CN(C(=O)OCc1ccccc1)CC2(C)C [Example 35, (2S)-2-(6-((Benzyloxy)carbonyl)-4-(8-fluoro-5-methylchroman-6-yl)-2,8,8-trimethyl-5,6,7,8-tetrahydro-1,6-naphthyridin-3-yl)-2-(tert-butoxy)acetic acid] was tested. Which EC50 did it give?
Answer: 3 nM

Question: How did the EC50 turn out when Cc1ccc(-c2c3c(nc(C)c2[C@H](OC(C)(C)C)C(=O)O)CCN(C(=O)CCCc2ccccc2)C3)cc1 [Example 36, (S)-2-(tert-Butoxy)-2-(2-methyl-6-(4-phenylbutanoyl)-4-(p-tolyl)-5,6,7,8-tetrahydro-1,6-naphthyridin-3-yl)acetic acid] was run?
Answer: 52 nM

Question: Which EC50 does the source give for Cc1nc2c(c(-c3cc(F)c4c(c3C)CCCO4)c1[C@H](OC(C)(C)C)C(=O)O)CN(Cc1cccc(Cl)c1)CC2(C)C [Example 37, (2S)-2-(tert-Butoxy)-2-(6-(3-chlorobenzyl)-4-(8-fluoro-5-methylchroman-6-yl)-2,8,8-trimethyl-5,6,7,8-tetrahydro-1,6-naphthyridin-3-yl)acetic acid] here?
Answer: 69 nM

Question: For Cc1nc2c(c(-c3ccc(Cl)cc3)c1[C@H](OC(C)(C)C)C(=O)O)CN(C(=O)OCc1ccccc1)CC2 [Example 38, (S)-2-(6-((Benzyloxy)carbonyl)-4-(4-chlorophenyl)-2-methyl-5,6,7,8-tetrahydro-1,6-naphthyridin-3-yl)-2-(tert-butoxy)acetic acid], which EC50 is on record?
Answer: 543 nM

Question: Cc1ccc(-c2c3c(nc(C)c2[C@H](OC(C)(C)C)C(=O)O)CCN(Cc2cccc(Cl)c2)C3)cc1 [Example 39, (S)-2-(tert-Butoxy)-2-(6-(3-chlorobenzyl)-2-methyl-4-(p-tolyl)-5,6,7,8-tetrahydro-1,6-naphthyridin-3-yl)acetic acid] was tested. Which EC50 did it give?
Answer: 137 nM

Question: Which EC50 does the source give for Cc1nc2c(c(-c3cc(F)c4c(c3C)CCCO4)c1[C@H](OC(C)(C)C)C(=O)O)CN(CCCc1ccccc1)CC2(C)C [Example 40, (2S)-2-(tert-Butoxy)-2-(4-(8-fluoro-5-methylchroman-6-yl)-2,8,8-trimethyl-6-(3-phenylpropyl)-5,6,7,8-tetrahydro-1,6-naphthyridin-3-yl)acetic acid] here?
Answer: 2 nM

Question: For Cc1ccc(-c2c3c(nc(C)c2[C@H](OC(C)(C)C)C(=O)O)CCN(Cc2ccc(Cl)cc2)C3)cc1 [Example 41, (S)-2-(tert-Butoxy)-2-(6-(4-chlorobenzyl)-2-methyl-4-(p-tolyl)-5,6,7,8-tetrahydro-1,6-naphthyridin-3-yl)acetic acid], which EC50 is on record?
Answer: 150 nM

Question: For Cc1ccc(-c2c3c(nc(C)c2[C@H](OC(C)(C)C)C(=O)O)C(C)(C)CN(CCCc2ccccc2)C3)cc1 [Example 43, (S)-2-(tert-Butoxy)-2-(2,8,8-trimethyl-6-(3-phenylpropyl)-4-(p-tolyl)-5,6,7,8-tetrahydro-1,6-naphthyridin-3-yl)acetic acid], which EC50 is on record?
Answer: 29 nM

Question: For Cc1ccc(-c2c3c(nc(C)c2[C@H](OC(C)(C)C)C(=O)O)CCN(CCc2c[nH]c4ccccc24)C3)cc1 [Example 46, (S)-2-(6-(2-(1H-Indol-3-yl)ethyl)-2-methyl-4-(p-tolyl)-5,6,7,8-tetrahydro-1,6-naphthyridin-3-yl)-2-(tert-butoxy)acetic acid], which EC50 is on record?
Answer: 139 nM

Question: How did the EC50 turn out when Cc1nc2c(c(-c3cc(F)c4c(c3C)CCCO4)c1[C@H](OC(C)(C)C)C(=O)O)CN(CC1CC1c1ccccc1)CC2 (stereo partly drawn) [Example 50, (2S)-2-(tert-Butoxy)-2-((R)-4-(8-fluoro-5-methylchroman-6-yl)-2-methyl-6-((2-phenylcyclopropyl)methyl)-5,6,7,8-tetrahydro-1,6-naphthyridin-3-yl)acetic acid] was run?
Answer: 5 nM

Question: With Cc1ccc(CCCN2CCc3nc(C)c([C@H](OC(C)(C)C)C(=O)O)c(-c4cc(F)c5c(c4C)CCCO5)c3C2)cc1 [Example 54, (2S)-2-(tert-Butoxy)-2-(4-(8-fluoro-5-methylchroman-6-yl)-2-methyl-6-(3-(p-tolyl)propyl)-5,6,7,8-tetrahydro-1,6-naphthyridin-3-yl)acetic acid] as the molecule, how does the EC50 read?
Answer: 2 nM

— patent US8629276B2, “Inhibitors of human immunodeficiency virus replication” (priority 2012, dated 2014)
